11 compounds from ChEMBL document CHEMBL3785074, “Molecular modeling and snake venom phospholipase A2 inhibition by phenolic compounds: Structure-activity relationship” (Eur J Med Chem, 2016) can be followed below.

Active and inactive are the calls of the source. The calls are words filed in the database; no cut-off is given here.

A short description of data set [1]: Lipophilicity, log P of compound. The class given is physicochemical. The note with it: octanol/water.
The nature of data set [2]: (§1) Protective activity against Daboia russellii venom-induced mortality in Swiss albino mouse at 100 mmol, iv by measuring venom LD50 administered immediately after venom injection measured after 24 hrs (reference value: 2.28ug). The format is functional, Daboia russelii.
The nature of data set [3]: Protective activity against Daboia russellii venom-induced mortality in Swiss albino mouse at 100 mmol, iv administered immediately after venom injection measured after 24 hrs relative to untreated control. The class given is functional, Daboia russelii.
Data set [4] can be described thus: Protective activity against Naja kaouthia venom-induced mortality in Swiss albino mouse at 100 mmol, iv preincubated with venom for 1 hr followed by administration to mouse measured after 24 hrs relative to untreated control. The format is functional.
The test system of data set [5] is Daboia russelii. As to the kind of experiment: Protective activity against Daboia russellii venom-induced mortality in iv dosed Swiss albino mouse administered immediately after venom injection relative to untreated control. The class given is functional, organism-based.
The nature of data set [6]: Protective activity against Naja kaouthia venom-induced mortality in Swiss albino mouse at 100 mmol, iv administered immediately after venom injection measured after 24 hrs relative to untreated control. The format is functional.
A short description of data set [7]: Protective activity against Daboia russellii venom-induced hemorrhage in Swiss albino mouse at 100 mmol, iv assessed as hemorhagic lesion administered immediately after venom injection measured after 24 hrs relative to untreated control. The class given is functional, Daboia russelii.
Data set [8] can be described thus: Protective activity against Daboia russellii venom-induced mortality in iv dosed Swiss albino mouse administered 30 mins after venom injection relative to untreated control. The format is functional, Daboia russelii.
Data set [9] is described as follows: Protective activity against Daboia russellii venom-induced mortality by measuring venom LD50 in Swiss albino mouse at 100 mmol, iv preincubated with venom for 1 hr followed by administration to mouse measured after 24 hrs (reference value: 2.28 ug). The class given is functional, Daboia russelii.
The nature of data set [10]: Protective activity against Naja kaouthia venom-induced mortality in Swiss albino mouse at 100 mmol, iv by measuring venom LD50 administered immediately after venom injection measured after 24 hrs (reference value: 2.82 ug). The format is functional.
A short description of data set [11]: Protective activity against Daboia russellii venom-induced hemorrhage in intradermally dosed Swiss albino mouse at 100 mmol assessed as hemorhagic lesion preincubated with venom for 1 hr followed by administration to mouse measured after 24 hrs relative to untreated control. The class given is functional, Daboia russelii.
Data set [12] is described as follows: Protective activity against Daboia russellii venom-induced mortality in Swiss albino mouse at 100 mmol, iv preincubated with venom for 1 hr followed by administration to mouse measured after 24 hrs relative to untreated control. The format is functional, Daboia russelii.
Data set [13] can be described thus: Protective activity against Daboia russellii venom-induced hemorrhage in intradermally dosed Swiss albino mouse at 100 mmol assessed as hemorhagic lesion by measuring minimal […] dose preincubated with venom for 1 hr followed by administration to mouse measured after 24 hrs (reference value: 5 ug). The format is functional, Daboia russelii.
Data set [14] is described as follows: (§2) Protective activity against Daboia russellii venom-induced hemorrhage in Swiss albino mouse at 100 mmol, iv assessed as hemorhagic lesion by measuring […] administered immediately after venom injection measured after 24 hrs (Rvb =5 ug). The class given is functional, Daboia russelii.
Data set [15] can be described thus: Protective activity against Naja kaouthia venom-induced mortality in Swiss albino mouse at 100 mmol, iv by measuring venom LD50 preincubated with venom for 1 hr followed by administration to mouse measured after 24 hrs (reference value: 2.82 ug). The class given is functional.
Data set [16] can be described thus: Protective activity against Daboia russellii venom-induced defibrinogenation in iv dosed Swiss albino mouse assessed as blood coagulation at 100 mmol administered immediately after venom injection relative to untreated control. The class given is functional, Daboia russelii.
Data set [17] can be described thus: Protective activity against Daboia russellii venom-induced defibrinogenation in iv dosed Swiss albino mouse assessed as venom level causing blood coagulation at 100 mmol preincubated with venom for 1 hr followed by administration to mouse relative to untreated. The format is functional, Daboia russelii.
The test system of data set [18] is Daboia russelii. As to the kind of experiment: Protective activity against Daboia russellii venom-induced coagulation in goat plasma assessed as increase in plasma recalcification time at 20 mmol preincubated with venom for 1 hr followed by plasma addition. The class given is functional, cell-free.
A short description of data set [19]: Protective activity against Daboia russellii venom-induced defibrinogenation in iv dosed Swiss albino mouse assessed as venom level causing blood coagulation at 100 mmol preincubated with venom for 1 hr followed by administration to mouse (reference value: 2.5 ug). The class given is functional, Daboia russelii.
Data set [20] is described as follows: Protective activity against Daboia russellii venom-induced defibrinogenation in iv dosed Swiss albino mouse assessed as venom level causing blood coagulation at 100 mmol administered immediately after venom injection (reference value: 2.5 ug). The format is functional, Daboia russelii.
Data set [21] in a line: Protective activity against Daboia russellii venom-induced mortality in iv dosed Swiss albino mouse administered 60 mins after venom injection relative to untreated control. The format is functional, Daboia russelii.
Data set [22] relates to Naja kaouthia. Put plainly: Protective activity against Naja kaouthia venom-induced mortality in iv dosed Swiss albino mouse assessed as administered 30 to 60 mins after venom injection. The format is functional, organism-based.
The subject of data set [23] is Daboia russelii. Described as §1. The class given is functional.
Data set [24] has as its system Daboia russelii. The description is as §2. The format is functional.
The test system of data set [25] is Naja kaouthia.
Description: Protective activity against Naja kaouthia venom-induced mortality in Swiss albino mouse at 100 mmol, iv by measuring venom LD50 administered immediately after venom injection measured after 24 hrs (Rvb = 2.82 ug)
Data set [26] relates to Daboia russelii.
Data set [27] concerns Naja kaouthia. The source holds these as a separate data set.

Turning to `COc1ccc(C=O)c(OC)c1`, the logP in data set [1] (read-out: logP) came to 0.97. Moreover, the LD50 in [2] stood at 100 µg; in data set [9], 22 µg; in data set [10], 8 µg; in [15] it was 9 µg. Besides, the “fold change (FC)” value in data set [3] is 2.5; in [4] it was 3.2; in [6], 1.6; in data set [7], 2; in data set [11] it was 5; in [12] it was 9.8. Also, the outcome with Daboia russelii [5] was Active. In data set [8], the Activity is 40%. For the same compound, the MHC is 25 µg in data set [13] and 10 µg in [14].

`COc1cccc(C=O)c1O` displayed a logP in data set [1] of 2.39. The LD50 in data set [2] stood at 150 µg; in [9], 25 µg; in data set [10], 10 µg; in data set [15], 9 µg. Moreover, the “fold change (FC)” value in data set [3] was determined as 3.75; in data set [16], 1.5; in [17], 10; in data set [4] it was 3.2; in data set [6], 2; in data set [7], 2. Also, the figures for the “fold change (FC)” value in data set [11] and in data set [12] were 10 and 11.2, respectively. Besides, the result in the data set with Daboia russelii [18] and in the data set on Daboia russelii [5] was Active. The Activity came to 25 µg in data set [19], 40% in data set [8], 3.5 µg in [20] and 10% in data set [21]. In addition, in the data set with Naja kaouthia [22], the outcome was inactive. Further, the values for the MHC in data set [13] and in [14] were 50 µg and 10 µg, respectively.

As to `COc1ccc(O)c(C=O)c1`, in data set [1] (read-out: logP), the logP stood at 1.93. In addition, the LD50 in data set [2] amounted to 100 µg; in [9], 11 µg; in [10] it was 8 µg; in data set [15], 6 µg. For the same compound, the “fold change (FC)” value came to 2.5 in data set [3]; 2.1 in data set [4]; 1.6 in data set [6]; 2 in [7]; 4 in [11]; 4.9 in [12]. In addition, the MHC worked out at 20 µg in data set [13] and 10 µg in data set [14].

Regarding `COc1ccc(CO)c(O)c1`, the LD50 in data set [2] turned out to be 150 µg; in data set [9], 22 µg; in data set [10], 10 µg; in data set [15] it was 9 µg. In addition, the “fold change (FC)” value in data set [3] stood at 3.75; in data set [16] it was 1.5; in [17], 10; in data set [4] it was 3.2; in data set [6], 2; in [7], 1. Also, the figures for the “fold change (FC)” value in data set [11] and in data set [12] were 6 and 9.8, respectively. Also, the result in the data set with Daboia russelii [18] and in the data set with Daboia russelii [5] was Active. For the same compound, the Activity turned out to be 25 µg in data set [19], 40% in [8], 3.5 µg in data set [20] and 10% in data set [21]. Besides, the outcome in the data set on Naja kaouthia [22] was inactive. Further, the MHC in data set [13] stood at 30 µg; in data set [14] it was 5 µg.

Take `C=CCOc1ccc(C=O)c(O)c1`: the LD50 in data set [2] turned out to be 150 µg; in data set [9], 22 µg; in [10], 10 µg; in data set [15] it was 9 µg. In addition, the “fold change (FC)” value stood at 3.75 in data set [3]; 1.5 in data set [16]; 2 in [17]; 3.2 in data set [4]; 2 in data set [6]; 2 in [7]. For the same compound, the “fold change (FC)” value in data set [11] is listed as 10; in [12], 9.8. Moreover, the outcome in the data set on Daboia russelii [18] and in the data set on Daboia russelii [5] was Active. In addition, the figures for the Activity in [19], in [8] and in [20] were 5 µg, 40% and 3.5 µg, respectively. The result in the data set on Naja kaouthia [22] was inactive. Moreover, the MHC in [13] was 50 µg; in data set [14], 10 µg.

Turning to `CCCCCCCOc1ccc(C=O)c(O)c1`, the LD50 entry with Daboia russelii [23] and in the data set with Naja kaouthia [25] was “inactive” each time. Moreover, the “fold change (FC)” value in data set [4] came to 1; in [11], 1; in [12], 2.6. Moreover, the values for the LD50 in data set [9] and in [15] were 6 µg and 3 µg, respectively. In data set [13], the MHC turned out to be 5 µg. Moreover, the MHC entry in the data set on Daboia russelii [24] was “inactive”.

For the compound `COc1ccc(/C=N/O)c(OC)c1`, the LD50 in data set [2] was 50 µg; in data set [9], 6 µg; in [15], 3 µg. The “fold change (FC)” value in [3] worked out at 1.25; in [4], 1; in data set [11], 1; in data set [12], 2.6. The MHC in data set [13] came out at 5 µg. Moreover, the MHC entry in the data set with Daboia russelii [24] was “inactive”. Further, the LD50 result in the data set on Naja kaouthia [25] is “inactive”.

For `CCCOc1ccc(C=O)c(O)c1`, the LD50 entry in the data set with Daboia russelii [23], in the data set with Daboia russelii [26], in the data set on Naja kaouthia [27] and in the data set on Naja kaouthia [25] was “inactive” each time. Also, in [11], the “fold change (FC)” value is listed as 1. For the same compound, the MHC in [13] was determined as 5 µg. Moreover, the MHC result in the data set on Daboia russelii [24] was “inactive”.

For `CCCCOc1ccc(C=O)c(O)c1`, the LD50 in data set [2] stood at 150 µg; in data set [9], 18 µg; in data set [10], 10 µg; in data set [15], 6 µg. The “fold change (FC)” value in data set [3] worked out at 3.75; in data set [16], 1.5; in data set [17], 2.4; in data set [4], 2.1; in data set [6] it was 2; in [7], 2. The “fold change (FC)” value in [11] and in data set [12] was 8 throughout. The result with Daboia russelii [18] was Active. Also, the Activity in [19] is 6 µg; in [20], 3.5 µg. Also, in the data set with Naja kaouthia [22], the result was inactive. Also, the MHC amounted to 140 µg in data set [13] and 10 µg in data set [14].

For `COc1cc(C=O)ccc1O` [VANILLIN], the logP in [1] (read-out: logP) came out at 1.87. The LD50 in data set [2] stood at 150 µg; in data set [9], 22 µg; in data set [10] it was 10 µg; in data set [15] it was 9 µg. In addition, the “fold change (FC)” value in data set [3] is listed as 3.75; in data set [4], 3.2; in data set [6] it was 2; in data set [7], 1; in [11], 4; in data set [12] it was 9.8. For the same compound, the MHC came to 20 µg in [13] and 5 µg in data set [14].

In the case of `CCOc1ccc(C=O)c(O)c1`, the LD50 entry in the data set with Daboia russelii [23], in the data set with Daboia russelii [26], in the data set with Naja kaouthia [27] and in the data set with Naja kaouthia [25] was “inactive” each time. In addition, in data set [11], the “fold change (FC)” value turned out to be 1. Moreover, in [13], the MHC stood at 5 µg. In addition, the MHC result in the data set on Daboia russelii [24] was “inactive”.

As usually defined, the logP is a log measure of how a compound divides between an organic and an aqueous phase.
